Residues, ends and D or L forms follow the SMILES beside them.
What was measured:
FRTL5 cells [1] = biological target: T1, FRTL5 cells (Rattus norvegicus, UniProt P21463); assay: TSab bioassay, inhibition of TSab-stimulated cAMP generation in FRTL5 cells; type: cell-based; settings: for Serum samples in which TSab-stimulated cAMP was significantly inhibited (p<0.05) / samples tested: peptide 150 μg/ml; for Inhibition of TSab-stimulated cAMP generation (in words): peptide 50 and 150 μg/ml
Protocol: (§1) FRTL5 cells were cultured in Hams F-12 medium supplemented with 5% calf serum and a preparation containing 6 hormones (6H), including 10 mU/ml bTSH (Sigma, St. Louis, Mo.), as previously described. Ambesi-Impiombato et al., Proc. Natl. Acad. Sci. U.S.A., 77:3455 (1980), the disclosure of which is incorporated by reference herein. The cells were enzymatically removed from flasks and plated in 24 well plates containing 6H at a density of 150,000 cells per well. After 4 days, the cells were washed and the media replaced with media containing insulin only (1H). All subsequent assays were performed on cells deprived of TSH for 5-7 days.
Serum samples from 15 patients with elevated TSab levels were selected from the clinical chemistry laboratory. The TSab values, expressed as an index, [formula] 63:707 (1988)]ranged from 10-20 with an average of 13.8±3.3. Normal serum has an index of less than 1.3.
The bioassay described by Kasagi et al., supra, with modifications as previously noted above, was used. The immunoglobulins were precipitated from 2 ml of TSab-containing serum with 6 ml of polyethylene glycol 6,000 (Baker; Phillipsburg, N.J.), centrifuged at 3,000×g for 20 minutes, and resuspended in 4 ml of NaCl-free HBSS with 0.5 mM IBMX and 0.5% BSA. The plated cells were washed with NaCl-free HBSS and the crude immunoglobulin extract, mixed with various concentrations of β-subunit peptides, was added in duplicate to the wells (total volume 200 μl/well). The cells were incubated for 2 hours at 37° C. and 5% CO2. The samples were then removed from the cells and a portion diluted 1:50 in NaOAc buffer, pH 6.2. A 25 μl aliquot of this was then used in a cAMP RIA as described above. The basal cAMP levels were determined for each plate of cells in the absence of immunoglobulin extract and β-peptides. A maximal cAMP level was attained by stimulating the cells with the immunoglobulin extract only. The percent increase in cAMP levels above basal was calculated as: [formula] as previously described (see Morris et al., supra). The percent inhibition of cAMP production by the β-subunit peptides was calculated as described above for TSH-stimulated cells, substituting pmol cAMP crude immunoglobulin for pmol cAMP TSH.
Inhibition of TSab activity was tested by comparing the replicates of cAMP levels generated in the presence of peptide to those generated by TSab alone using Student's T test for unpaired samples. Mean inhibition by the various doses of synthetic peptide for the patient group was tested by comparison with maximum cAMP response within each patient sample using the T test for paired samples.

[2] = biological target: T2, TSH receptor on human thyroid membranes (Homo sapiens, UniProt P16473); assay: Human thyroid membrane TSH radio-receptor assay (inhibition of 125I-bTSH binding); settings: for Inhibition of TSH binding to human thyroid membrane (in words): human thyroid membrane RRA; for EC50: concentration inhibiting 125I-bTSH binding to human thyroid membrane by 50%, mean ± se of at least 3 assays
T2 construct: Crude membrane preparations were prepared from the frozen tissue; from tissue; host or cells: human thyroid tissue (Graves' disease patients), crude 2000 x g membrane fraction
T2 sequence (P16473 21-764): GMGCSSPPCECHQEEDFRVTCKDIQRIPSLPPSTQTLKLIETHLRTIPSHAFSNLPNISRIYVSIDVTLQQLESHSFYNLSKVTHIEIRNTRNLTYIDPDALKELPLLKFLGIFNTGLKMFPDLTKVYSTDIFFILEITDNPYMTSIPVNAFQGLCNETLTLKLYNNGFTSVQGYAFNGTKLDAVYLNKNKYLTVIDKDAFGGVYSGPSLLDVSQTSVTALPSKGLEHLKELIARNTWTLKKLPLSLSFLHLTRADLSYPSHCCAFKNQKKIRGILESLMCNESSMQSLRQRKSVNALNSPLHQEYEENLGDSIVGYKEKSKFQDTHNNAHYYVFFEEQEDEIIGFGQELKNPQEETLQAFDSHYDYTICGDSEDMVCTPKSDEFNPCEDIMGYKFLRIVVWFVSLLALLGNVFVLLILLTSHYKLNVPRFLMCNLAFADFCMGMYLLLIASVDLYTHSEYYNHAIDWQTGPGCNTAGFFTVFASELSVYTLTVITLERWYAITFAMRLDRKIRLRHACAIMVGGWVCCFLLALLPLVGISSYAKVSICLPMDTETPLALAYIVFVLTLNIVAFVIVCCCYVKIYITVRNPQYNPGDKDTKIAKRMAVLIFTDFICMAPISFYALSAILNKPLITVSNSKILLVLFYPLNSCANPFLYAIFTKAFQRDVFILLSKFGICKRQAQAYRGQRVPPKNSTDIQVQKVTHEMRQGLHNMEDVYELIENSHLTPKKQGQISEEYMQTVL
Protocol: Thyroid tissue from patients with Graves' disease was obtained at surgery and promptly frozen and maintained at -70° C. Crude membrane preparations were prepared from the frozen tissue as previously described, Takahashi et al., J. Clin. Endocrinol. Metab., 47:870-876 (1978), the disclosure of which is incorporated by reference herein. Briefly, the tissue was homogenized with a Polytron homogenizer (Brinkmann Instruments,Westbury, N.Y.), and the 2000×g fraction was collected by centrifugation, washed, and resuspended in 40 mM Tris, 200 mM sucrose, pH 7.4. Membrane preparations were maintained at -70° C. until assay.
(§2) Highly purified bTSH (30 U/mg, supplied by Dr. J. G. Pierce, formerly of UCLA) was radio-iodinated (Na^125 I, Amersham, Chicago) by a lactoperoxidase technique to a specific activity averaging 40-50 μCi/μg as previously described, Takahashi et al., supra, then purified by Sephadex G-100 chromatography.
(§3) The TSH radio-receptor assay (RRA) utilized for the studies has been well described previously; see Takahashi et al., supra and Morris et al., Endocrinology, 123:456-462 (1988), the disclosure of which is incorporated by reference herein. Briefly, for either human or porcine thyroid RRA, the incubation mixture consisted of the following: 10 mg equivalents of wet weight (mg eq) crude thyroid membrane preparation, 0.124 ng [^125 I]iodo-bTSH (approximately 20,000 cpm), 0.2% Triton X-100, and the noted amounts of synthetic peptides or unlabeled bTSH in 0.5 ml 40 mM Tris, 0.1% BSA, pH 7.4. Bound label was separated from free after 2 hrs incubation at 25° C. by addition of a 1 ml 30% polyethylene glycol (PEG, Baker, Phillipsburg, N.J.) 6000 in 1M NaCl and centrifugation. The resulting pellet was counted in a gamma counter. Non-specific binding was determined by addition of a 100 mU/ml crude bTSH (Sigma, St. Louis).

FRTL5 cells [3] = biological target: T1, FRTL5 cells; assay: TSH bioassay, inhibition of TSH-mediated cAMP generation in FRTL5 cells; type: cell-based
Protocol: as §1
The TSH bioassay was a modification of assays previously described by Bidey et al., J. Endocrinol., 101:269 (1984); and Kasagi et al., ACTA Endocrinol., 115:30 (1987). FRTL5 cells were washed with NaCl-free Hanks balanced salt solution (NaCl-free HBSS) pH 7.3. The cells were then exposed to purified bovine TSH (bTSH) (a gift from Dr. John Pierce, formerly of UCLA) in the presence and absence of specific β-subunit peptides in NaCl-free HBSS with 0.5 mM isobutylmethylxanthine (IBMX, Sigma, St. Louis, Mo.) and 0.5% BSA (Sigma). The total volume in each well was 275 μl. In stimulation assays, only the β-subunit peptides were added. For inhibition assays, two different concentrations of the β-subunit peptides were added to culture wells in duplicate with 200 mU/I of purified bTSH. The plates were incubated for 2 hours at 37° C. in 5% CO2. The media was removed from the cells and a portion diluted 1:50 in 0.05M NaOAc buffer, pH 6.2. A 25 μl aliquot of this was used in a cAMP RIA. Basal cAMP levels were determined in the absence of the TSH or β-subunit peptides. In inhibition assays, the percent inhibition was calculated as noted below (see Morris et al., (1988) supra): [formula]

[4] = biological target: T3, porcine TSH receptor (porcine thyroid membranes) (Sus scrofa, UniProt Q8SPP9); assay: Porcine thyroid membrane TSH radio-receptor assay (inhibition of 125I-bTSH binding); settings: concentration inhibiting 125I-bTSH binding to porcine thyroid membrane by 50%; mean ± se of at least 3 assays
T3 construct: Frozen porcine thyroid glands were purchased; tissue Pel-Freez Biologicals; host or cells: porcine thyroid glands, crude membrane preparation
T3 sequence (Q8SPP9 22-764): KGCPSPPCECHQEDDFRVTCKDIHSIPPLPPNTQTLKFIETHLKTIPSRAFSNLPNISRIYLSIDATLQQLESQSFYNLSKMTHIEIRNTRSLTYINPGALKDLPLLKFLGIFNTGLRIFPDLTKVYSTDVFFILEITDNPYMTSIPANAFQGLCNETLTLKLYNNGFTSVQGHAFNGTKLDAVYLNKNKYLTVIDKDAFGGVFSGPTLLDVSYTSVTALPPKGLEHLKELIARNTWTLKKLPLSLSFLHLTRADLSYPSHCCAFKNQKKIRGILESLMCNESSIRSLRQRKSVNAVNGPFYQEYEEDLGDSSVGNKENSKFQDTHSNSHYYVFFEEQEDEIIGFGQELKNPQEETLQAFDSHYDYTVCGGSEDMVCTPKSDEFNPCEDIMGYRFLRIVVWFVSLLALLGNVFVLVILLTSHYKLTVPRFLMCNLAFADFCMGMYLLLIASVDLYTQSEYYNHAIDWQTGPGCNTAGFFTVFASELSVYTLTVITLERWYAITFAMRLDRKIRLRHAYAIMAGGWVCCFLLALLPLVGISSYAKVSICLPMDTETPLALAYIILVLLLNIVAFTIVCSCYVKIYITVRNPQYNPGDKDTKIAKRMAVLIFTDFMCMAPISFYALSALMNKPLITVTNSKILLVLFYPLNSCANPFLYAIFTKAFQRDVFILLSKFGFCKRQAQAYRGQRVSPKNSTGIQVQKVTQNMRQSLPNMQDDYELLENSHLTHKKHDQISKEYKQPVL
From the text: (§4) Frozen porcine thyroid glands were purchased (Pel-Freez Biologicals, Rogers, Ak.) and prepared using the same procedures as for the human glands.
as §2, §3

[5] = biological target: T4, EGF thyroid membrane receptor (Sus scrofa, UniProt A0A5G2R2I8); assay: Porcine thyroid membrane epidermal growth factor radio-receptor assay; type: binding; settings: [125I]iodo-EGF, read-out: EC50 of unlabeled EGF in EGF RRA
T4 construct: The incubation mixture consisted of 40 mg eq crude thyroid membrane; tissue Pel-Freez Biologicals; host or cells: porcine thyroid glands, crude membrane preparation
T4 sequence (A0A5G2R2I8 22-1210): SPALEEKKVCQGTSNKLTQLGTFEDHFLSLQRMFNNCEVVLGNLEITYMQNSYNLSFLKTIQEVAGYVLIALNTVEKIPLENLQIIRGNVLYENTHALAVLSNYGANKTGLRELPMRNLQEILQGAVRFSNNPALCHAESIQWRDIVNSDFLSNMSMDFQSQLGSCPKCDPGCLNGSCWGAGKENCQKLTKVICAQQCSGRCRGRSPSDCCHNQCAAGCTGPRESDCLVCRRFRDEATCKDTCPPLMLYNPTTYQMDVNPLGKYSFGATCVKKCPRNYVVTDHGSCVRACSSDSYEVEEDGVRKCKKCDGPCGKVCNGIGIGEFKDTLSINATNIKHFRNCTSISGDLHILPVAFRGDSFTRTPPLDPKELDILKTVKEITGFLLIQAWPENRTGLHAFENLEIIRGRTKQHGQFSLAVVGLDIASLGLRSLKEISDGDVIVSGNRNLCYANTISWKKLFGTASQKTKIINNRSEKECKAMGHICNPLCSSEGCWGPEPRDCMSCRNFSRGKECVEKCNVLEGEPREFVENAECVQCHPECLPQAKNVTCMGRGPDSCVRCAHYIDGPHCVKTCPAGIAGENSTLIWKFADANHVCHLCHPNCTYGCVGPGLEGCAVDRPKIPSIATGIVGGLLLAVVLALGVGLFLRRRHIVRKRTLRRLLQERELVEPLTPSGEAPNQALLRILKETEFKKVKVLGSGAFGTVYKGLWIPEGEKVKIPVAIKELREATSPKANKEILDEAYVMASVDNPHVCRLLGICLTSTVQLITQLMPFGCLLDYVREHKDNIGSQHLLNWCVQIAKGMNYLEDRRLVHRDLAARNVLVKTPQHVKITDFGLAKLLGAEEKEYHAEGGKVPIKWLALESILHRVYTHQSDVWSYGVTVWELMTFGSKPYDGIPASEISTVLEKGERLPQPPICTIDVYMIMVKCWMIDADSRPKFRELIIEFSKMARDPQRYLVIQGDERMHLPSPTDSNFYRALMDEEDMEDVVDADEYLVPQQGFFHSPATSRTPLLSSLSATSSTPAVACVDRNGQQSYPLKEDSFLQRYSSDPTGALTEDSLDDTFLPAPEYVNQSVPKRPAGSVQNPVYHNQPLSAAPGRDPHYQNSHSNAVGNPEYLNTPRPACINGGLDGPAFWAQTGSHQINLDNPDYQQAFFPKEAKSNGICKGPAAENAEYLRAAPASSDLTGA
Protocol: as §4
The EGF RRA was a modification of that described by Humphries et al., J. Endocrinol., 102:857-61 (1984), the disclosure of which is incorporated by reference herein. Purified murine EGF (a gift of Dr. N. S. Jiang, Mayo Clinic) was radio-iodinated by a chloramine-T technique to a specific activity of 65 μCi/μg. The incubation mixture consisted of 40 mg eq crude thyroid membrane, 0.5 ng [^125 I]iodo-EGF, and the indicated concentrations of unlabeled EGF or synthetic peptides in 0.5 ml phosphate buffered saline plus 5 mM MgCl2, 1 mM CaCl2, 0.1% BSA, pH 7.4. Non-specific binding was determined by addition of 0.5 μg unlabeled EGF. Bound was separated from free by precipitation with PEG and centrifugation as above.

T1 sequence (P21463 22-764): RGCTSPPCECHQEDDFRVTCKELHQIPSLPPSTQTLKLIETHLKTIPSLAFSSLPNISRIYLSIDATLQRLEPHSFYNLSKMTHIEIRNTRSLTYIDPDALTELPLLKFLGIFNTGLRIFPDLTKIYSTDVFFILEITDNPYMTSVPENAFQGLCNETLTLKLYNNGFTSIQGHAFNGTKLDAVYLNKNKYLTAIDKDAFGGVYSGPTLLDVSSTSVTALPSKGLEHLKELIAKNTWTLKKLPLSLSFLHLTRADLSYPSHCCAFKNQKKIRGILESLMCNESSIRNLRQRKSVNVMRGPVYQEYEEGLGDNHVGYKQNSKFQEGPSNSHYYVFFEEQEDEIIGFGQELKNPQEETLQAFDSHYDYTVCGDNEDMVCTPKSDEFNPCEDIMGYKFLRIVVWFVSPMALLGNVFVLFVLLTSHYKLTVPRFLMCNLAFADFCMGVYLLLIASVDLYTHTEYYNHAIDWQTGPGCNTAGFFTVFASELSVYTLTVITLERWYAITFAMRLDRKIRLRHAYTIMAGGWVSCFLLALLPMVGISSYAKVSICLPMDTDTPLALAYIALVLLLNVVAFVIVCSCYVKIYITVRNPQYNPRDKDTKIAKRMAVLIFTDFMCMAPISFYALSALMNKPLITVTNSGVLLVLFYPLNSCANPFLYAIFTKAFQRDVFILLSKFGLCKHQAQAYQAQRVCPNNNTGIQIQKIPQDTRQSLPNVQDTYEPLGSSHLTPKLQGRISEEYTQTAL

Row | Serum samples in which TSab-stimulated cAMP was significantly inhibited (p<0.05) / samples tested (FRTL5 cells [1]) | Inhibition of TSab-stimulated cAMP generation (in words) (FRTL5 cells [1]) | Inhibition of TSab-stimulated cAMP generation (in words) (FRTL5 cells [1]; listed as (II)) | Inhibition of TSab-stimulated cAMP generation (in words) (FRTL5 cells [1]; listed as (I)) | EC50 [2] [µM] | EC50 [4] [µM] | Inhibition of TSab-stimulated cAMP generation (in words) (FRTL5 cells [1]; listed as (III)) | EC50 [5] [µM] | Molecule | Inhibition of TSH binding to human thyroid membrane (in words) [2] | Inhibition of TSH-mediated cAMP generation (in words) (FRTL5 cells [3])
1 | 10/11 | significantly inhibited cAMP production | inhibitory effect | – | – | – | – | – | CC(C)C[C@H](N)C(=O)N[C@@H](CO)C(=O)N[C@@H](CS)C(=O)N[C@@H](CCCCN)C(=O)N[C@@H](CS)C(=O)NCC(=O)N[C@@H](CCCCN)C(=O)N[C@@H](CS)C(=O)N[C@@H](CC(N)=O)C(=O)N[C@H](C(=O)N[C@@H](CC(=O)O)C(=O)N[C@@H](Cc1ccc(O)cc1)C(=O)N[C@@H](CO)C(=O)N[C@@H](CC(=O)O)C(=O)N[C@@H](CS)C(N)=O)[C@@H](C)O [β81-95, Leu-Ser-Cys-Lys-Cys-Gly-Lys-Cys-Asn-Thr-Asp-Tyr-Ser-Asp-Cys] (H-LSCKCGKCNTDYSDC-NH2; N-terminus assumed) | inhibit binding of TSH to human thyroid membrane | effectively inhibit TSH-mediated cAMP generation
2 | 12/12 | significantly inhibited cAMP production | – | inhibitory effect | 331 ± 45 | 1160 ± 431 | – | – | CC[C@H](C)[C@H](NC(=O)[C@H](Cc1c[nH]cn1)NC(=O)[C@H](CCSC)NC(=O)[C@@H](NC(=O)[C@H](Cc1ccc(O)cc1)NC(=O)[C@H](CCC(=O)O)NC(=O)[C@@H](NC(=O)[C@@H]1CCCN1C(=O)[C@@H](NC(=O)[C@H](CS)NC(=O)[C@@H](N)Cc1ccccc1)[C@@H](C)CC)[C@@H](C)O)[C@@H](C)O)C(=O)N[C@@H](CCC(=O)O)C(=O)N[C@@H](CCCNC(=N)N)C(=O)N[C@@H](CCCNC(=N)N)C(=O)N[C@@H](CCC(=O)O)C(N)=O [β1-15, Phe-Cys-Ile-Pro-Thr-Glu-Tyr-Thr-Met-His-Ile-Glu-Arg-Arg-Glu] (H-FCIPTEYTMHIERRE-NH2; N-terminus assumed) | – | effectively inhibit TSH-mediated cAMP generation
3 | 10/11 | significantly inhibited cAMP production | – | – | 80 ± 9 | 106 ± 8.7 | inhibitory effect | – | C[C@@H](O)[C@H](NC(=O)[C@H](CS)NC(=O)[C@H](Cc1ccc(O)cc1)NC(=O)[C@H](CC(N)=O)NC(=O)[C@@H](NC(=O)[C@@H](N)CCCCN)[C@@H](C)O)C(=O)N[C@@H](CCCCN)C(=O)N1CCC[C@H]1C(=O)N[C@@H](CCC(N)=O)C(=O)N[C@@H](CCCCN)C(=O)N[C@@H](CO)C(=O)N[C@@H](Cc1ccc(O)cc1)C(=O)O [β101-112, Lys-Thr-Asn-Tyr-Cys-Thr-Lys-Pro-Gln-Lys-Ser-Tyr] (H-KTNYCTKPQKSY-OH) | inhibit binding of TSH to human thyroid membrane | effectively inhibit TSH-mediated cAMP generation
4 | – | – | – | – | – | – | – | 0.000252 | EGF: purified murine epidermal growth factor, unlabeled | – | –
